≈ marks a conversion by molar mass, not a printed value.
Assays:
Test in all cases: Proliferation inhibition of cancer cells (propidium iodide fluorescence)
Format in all cases: cell-based, human
[1] = test system: UXF 1138L; settings: Homo sapiens, 96 h, UXF 1138L cell line, 4 days, read-out: IC50 value
Method: (§1) Using various human cancer cells in vitro, the concentrations of the test compounds (A, B, C, D, E, F), which inhibit the proliferation of cancer cells by 50% (IC50) and 70% (IC70) were determined. Specifically, each cell line of bladder cancer (BXF 1218L and T-24), glioblastoma (CNXF 498NL), colic cancer (HCT-116 and HT-29), gastric cancer (GXF 251 L), head and neck cancer (HNXF 536L), non small cell lung cancer (LXF 1121L, LXF 289L, LXF 526L, LXF 529L, LXF 629L and H-460), mammary cancer (MAXF 401NL, MCF-7, MDA-231 and MDA-468), melanoma (MEXF 276L, MEXF 394NL, MEXF 462NL, MEXF 514L and MEXF 520L), ovary cancer (OVXF 1619L, OVXF 899L and OVCAR-3), pancreatic cancer (PAXF 1657L and PANC-1), prostate cancer (22Rv1, DU-145, LNCaP and PC3M), pleuramesothelioma (PXF 1752L), renal cancer (RXF 1781 L, RXF 393NL, RXF 486L and RXF 944L), and uterine cancer (UXF 1138L) is added to a 96-well microtiter plate at a density of 3.6-11.2x10^3 cells per well in RPMI-1640 medium containing 10% fetal calf serum and 0.1% gentamicin and incubated for 24 hours. After 24 hours RPMI-1640 medium containing 10% fetal calf serum and 0.1% gentamicin, together with a test compound, is added thereto. Then, this plate is incubated at 37°C for 4 days in a humidified atmosphere of air containing 5% CO2. Thereafter, the cell culture medium with or without drug was replaced by 200 µl of an aqueous PI solution (7 µg/ml propidium iodide). Applying a freeze thaw cycle to permeabilize intact cell walls, staining of DNA was achieved, and the fluorescence of each well was measured using the Cy-tofluor 4000 microplate reader (excitation 530 nm, emission 620 nm), giving a direct relationship to the total cell number. Proliferation inhibition is expressed as test versus untreated control (T/C-value [%]). IC50 and IC70 values were determined by plotting compound concentration versus cell viability.

[2] = test system: LXFL 529L; settings: Homo sapiens, 96 h, LXFL 529L cell line, 4 days, read-out: IC50 value
Method: as §1

[3] = test system: MAXF 401NL; settings: Homo sapiens, 96 h, MAXF 401NL cell line, 4 days, read-out: IC50 value
Method: as §1

[4] = test system: RXF 486L; settings: Homo sapiens, 96 h, RXF 486L cell line, 4 days, read-out: IC50 value
Method: as §1

[5] = test system: GXF 251 L; settings: Homo sapiens, 96 h, GXF 251L cell line, 4 days, read-out: IC50 value
Method: as §1

[6] = test system: MEXF 462NL; settings: Homo sapiens, 96 h, MEXF 462NL cell line, 4 days, read-out: IC50 value
Method: as §1

| SMILES | IC50 [1] | IC50 [2] | IC50 [3] | IC50 [4] | IC50 [5] | IC50 [6] |
| --- | --- | --- | --- | --- | --- | --- |
| CC1CC(O)C(O)C2(O1)OC1CC(=O)OC1C1=C2C(=O)c2c(O)cccc2C1=O (stereo not drawn) [Compound A, deacetylgriseusin A, reference compound] | 8.08 mg/L (≈ 20.1 µM) | 8.95 mg/L (≈ 22.2 µM) | 0.345 mg/L (≈ 0.857 µM) | 1.11 mg/L (≈ 2.77 µM) | 3.06 mg/L (≈ 7.62 µM) | 1.13 mg/L (≈ 2.8 µM) |
| COC(=O)CC1OC2(OC(C)CC(O)C2O)C2=C(C(=O)c3cccc(O)c3C2=O)C1O (stereo not drawn) [Compound E, 4-hydroxy-deacetylgriseusin B methylester] | 0.377 mg/L (≈ 0.868 µM) | 3.87 mg/L (≈ 8.9 µM) | 0.046 mg/L (≈ 0.106 µM) | 0.288 mg/L (≈ 0.663 µM) | 0.393 mg/L (≈ 0.905 µM) | 0.094 mg/L (≈ 0.216 µM) |
| COC(=O)CC1OC2(OC(C)CC(=O)C2O)C2=C(C(=O)c3cccc(O)c3C2=O)C1O (stereo not drawn) [Compound F, 4'-dehydro-4-hydroxy-deacetylgriseusin B methylester] | 0.302 mg/L (≈ 0.698 µM) | 0.158 mg/L (≈ 0.365 µM) | 0.034 mg/L (≈ 0.0786 µM) | 0.053 mg/L (≈ 0.123 µM) | 0.037 mg/L (≈ 0.0856 µM) | 0.029 mg/L (≈ 0.0671 µM) |
